Experimental data reported in article PMC13185748, “Targeting noncanonical nuclear factor kappa B signalling in CYLD cutaneous syndrome by selective inhibition of IκB kinase alpha” (The British Journal of Dermatology, 2026).
pIC50: −log10 of the molar value.

Biological target: T1, IκB kinase alpha (IKKα) (Homo sapiens, UniProt O15111)
T1 construct: gene CHUK
T1 sequence (O15111 1-745): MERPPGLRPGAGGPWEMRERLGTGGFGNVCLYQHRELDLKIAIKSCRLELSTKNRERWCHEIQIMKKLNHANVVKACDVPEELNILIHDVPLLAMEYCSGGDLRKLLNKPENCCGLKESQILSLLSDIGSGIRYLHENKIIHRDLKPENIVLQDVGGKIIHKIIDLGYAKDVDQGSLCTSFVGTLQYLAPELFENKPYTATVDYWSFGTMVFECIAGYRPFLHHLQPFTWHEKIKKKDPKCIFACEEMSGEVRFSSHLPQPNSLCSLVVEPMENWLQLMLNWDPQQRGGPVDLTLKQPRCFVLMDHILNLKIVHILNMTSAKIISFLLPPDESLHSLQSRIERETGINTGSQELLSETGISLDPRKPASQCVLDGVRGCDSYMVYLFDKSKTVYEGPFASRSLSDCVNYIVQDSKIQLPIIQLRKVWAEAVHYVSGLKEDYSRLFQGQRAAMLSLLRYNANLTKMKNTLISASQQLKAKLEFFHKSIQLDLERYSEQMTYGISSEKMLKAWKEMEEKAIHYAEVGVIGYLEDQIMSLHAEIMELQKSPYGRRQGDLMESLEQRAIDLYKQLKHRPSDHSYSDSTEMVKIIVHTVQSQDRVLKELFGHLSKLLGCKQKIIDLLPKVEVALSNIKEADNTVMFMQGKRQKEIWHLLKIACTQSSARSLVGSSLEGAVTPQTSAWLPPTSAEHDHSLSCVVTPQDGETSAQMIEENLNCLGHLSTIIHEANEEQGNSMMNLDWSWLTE
Experiment: target engagement in PC3m cells by pharmacodynamic markers (p100 phosphorylation; RelB nuclear translocation), data not shown
Assay type: cell-based

- pIC50: 7.30
Substance: SU1644
